Assay results taken from PMC10023787, “Trio-pharmacophore DNA-encoded chemical library for simultaneous selection of fragments and linkers” (Nature Communications, 2023).
Several values for one entry are separate records, joined by “and”; a condition that tells them apart may be missing. Identical values can stand only once. Like-named read-outs stand apart in the source and are kept apart here.

Tests used:
MMP-9 = molecular target: T1, MMP-9 (Homo sapiens, UniProt P14780); experiment: MMP-9 inhibition assay (fluorogenic peptide substrate); format: biochemical; design: remaining enzyme activity (% of control): scale not given here; details: for IC50: n.d: not detected
T1 construct: purchased Sino Biological 10327-HNAH
T1 sequence (P14780 107-707 limits assumed): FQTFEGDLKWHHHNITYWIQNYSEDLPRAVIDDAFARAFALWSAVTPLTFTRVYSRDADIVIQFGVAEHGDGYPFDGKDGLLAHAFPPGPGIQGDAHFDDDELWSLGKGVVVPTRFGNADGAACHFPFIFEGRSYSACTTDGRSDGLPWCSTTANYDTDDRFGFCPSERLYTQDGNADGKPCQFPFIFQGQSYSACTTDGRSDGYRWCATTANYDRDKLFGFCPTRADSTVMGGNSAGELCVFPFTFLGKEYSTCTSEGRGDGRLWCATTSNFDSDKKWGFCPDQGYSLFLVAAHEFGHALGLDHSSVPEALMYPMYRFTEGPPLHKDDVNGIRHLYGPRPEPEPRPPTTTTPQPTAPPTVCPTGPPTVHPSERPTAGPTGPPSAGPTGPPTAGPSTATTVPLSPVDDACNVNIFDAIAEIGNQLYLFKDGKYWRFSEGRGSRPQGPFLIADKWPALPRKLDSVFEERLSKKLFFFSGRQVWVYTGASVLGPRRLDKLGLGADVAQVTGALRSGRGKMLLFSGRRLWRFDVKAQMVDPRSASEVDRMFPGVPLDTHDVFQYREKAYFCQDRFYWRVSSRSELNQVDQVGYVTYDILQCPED
Outline: (§1)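 Human proMMP-2 and proMMP-9 were activated with 1 mM APMA (37 °C, 2 h), then used at 6.5 nM (MMP-2) or 10 nM (MMP-9) in Tris/NaCl/CaCl2/Brij 35 buffer, pH 7.5. Enzyme was preincubated with compound 30 min at RT; 25 μM DNP-Pro-Leu-Gly-Met-Trp-Ser-Arg substrate was added and fluorescence (ex 280/em 360 nm) followed 30 min. IC50 from logistic fits of Vmax.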

MMP-2 = molecular target: T2, MMP-2 (Homo sapiens, UniProt P08253); experiment: MMP-2 inhibition assay (fluorogenic peptide substrate); format: biochemical; details: for IC50: n.d: not detected
T2 construct: purchased Sino Biological 10082-HNAH
T2 sequence (P08253 110-660): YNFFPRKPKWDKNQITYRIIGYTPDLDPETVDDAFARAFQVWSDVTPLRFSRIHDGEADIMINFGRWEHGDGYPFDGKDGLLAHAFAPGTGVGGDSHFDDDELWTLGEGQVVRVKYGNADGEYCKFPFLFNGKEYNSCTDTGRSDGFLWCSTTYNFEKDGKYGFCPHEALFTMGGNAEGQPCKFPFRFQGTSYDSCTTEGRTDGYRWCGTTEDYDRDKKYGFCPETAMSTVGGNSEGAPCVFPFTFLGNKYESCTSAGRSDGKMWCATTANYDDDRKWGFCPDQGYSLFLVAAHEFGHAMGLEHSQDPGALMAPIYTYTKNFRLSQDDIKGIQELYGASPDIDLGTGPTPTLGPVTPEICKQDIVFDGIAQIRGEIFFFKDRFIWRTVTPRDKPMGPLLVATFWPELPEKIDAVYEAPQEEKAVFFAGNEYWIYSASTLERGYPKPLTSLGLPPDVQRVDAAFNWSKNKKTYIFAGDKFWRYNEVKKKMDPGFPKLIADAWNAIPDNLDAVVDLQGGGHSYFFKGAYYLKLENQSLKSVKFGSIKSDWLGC
Outline: as §1

[1] = mean ± SE, Fig. 5e prints no unit, µM, read-out: IC50
[2] = mean ± SE, Fig. 5d unit inferred, µM, read-out: IC50
[3] = MMP-9, concentration 1219.00 µM
[4] = MMP-2, concentration 1219.00 µM
[5] = Figure 5d, fragment combination joined by linker, read-out: MMP9 IC50
[6] = Figure 5d, fragment combination joined by linker, read-out: MMP2 IC50

Cc1cc(=O)[nH]c(-n2nc(C)c(CCC(=O)NCCSCC(=O)NCCNC(=O)c3cnc4c(c3)nc(O)n4C)c2C)n1 [693+826 Linker 24]
remaining enzyme activity (% of control) (MMP-9; MMP-9, concentration 0.12 µM): 99.26 | remaining enzyme activity (% of control) (MMP-9; MMP-9, concentration 0.49 µM): 96.54 | remaining enzyme activity (% of control) (MMP-9; MMP-9, concentration 1.95 µM): 94.32 | remaining enzyme activity (% of control) (MMP-9; MMP-9, concentration 7.81 µM): 95.86 | remaining enzyme activity (% of control) (MMP-9; MMP-9, concentration 31.25 µM): 95.02 | remaining enzyme activity (% of control) (MMP-9; MMP-9, concentration 125.00 µM): 70.00 | remaining enzyme activity (% of control) (MMP-9; MMP-9, concentration 500.00 µM): 41.34 | IC50 (MMP-9; [1]): 358 ± 114 µM | remaining activity (%) (MMP-2; MMP-2, concentration 0.12 µM): 98.54 | remaining activity (%) (MMP-2; MMP-2, concentration 0.49 µM): 94.49 | remaining activity (%) (MMP-2; MMP-2, concentration 1.95 µM): 93.80 | remaining activity (%) (MMP-2; MMP-2, concentration 7.81 µM): 81.11 | remaining activity (%) (MMP-2; MMP-2, concentration 31.25 µM): 77.57 | remaining activity (%) (MMP-2; MMP-2, concentration 125.00 µM): 58.31 | remaining activity (%) (MMP-2; MMP-2, concentration 500.00 µM): 52.30 | IC50 (MMP-2; [2]): 417 ± 50.3 µM

Cc1cc(=O)[nH]c(-n2nc(C)c(CCC(=O)NCCNC(=O)c3cncc(O)c3)c2C)n1 [693+828 Linker 1]
remaining enzyme activity (% of control) (MMP-9; MMP-9, concentration 0.08 µM): 98.15 | remaining enzyme activity (% of control) (MMP-9; MMP-9, concentration 0.38 µM): 101.08 | remaining enzyme activity (% of control) (MMP-9; MMP-9, concentration 1.91 µM): 93.24 | remaining enzyme activity (% of control) (MMP-9; MMP-9, concentration 9.54 µM): 99.31 | remaining enzyme activity (% of control) (MMP-9; MMP-9, concentration 47.72 µM): 78.04 | remaining enzyme activity (% of control) (MMP-9; MMP-9, concentration 238.60 µM): 51.23 | remaining enzyme activity (% of control) (MMP-9; MMP-9, concentration 1193.00 µM): 4.04 | IC50 (MMP-9; [1]): 232 ± 35.2 µM | remaining activity (%) (MMP-2; MMP-2, concentration 0.0153 µM): 92.49 | remaining activity (%) (MMP-2; MMP-2, concentration 0.08 µM): 86.73 | remaining activity (%) (MMP-2; MMP-2, concentration 0.38 µM): 90.73 | remaining activity (%) (MMP-2; MMP-2, concentration 1.91 µM): 83.36 | remaining activity (%) (MMP-2; MMP-2, concentration 9.54 µM): 76.57 | remaining activity (%) (MMP-2; MMP-2, concentration 47.72 µM): 66.74 | remaining activity (%) (MMP-2; MMP-2, concentration 238.60 µM): 28.54 | remaining activity (%) (MMP-2; MMP-2, concentration 1193.00 µM): 3.05 | IC50 (MMP-2; [2]): 110 ± 13.3 µM

Cc1cc(=O)[nH]c(-n2nc(C)c(CCC(=O)NCCCCCCCCNC(=O)c3cncc(O)c3)c2C)n1 [693+828 Linker 4]
remaining enzyme activity (% of control) (MMP-9; MMP-9, concentration 0.08 µM): 97.75 | remaining enzyme activity (% of control) (MMP-9; MMP-9, concentration 0.39 µM): 94.18 | remaining enzyme activity (% of control) (MMP-9; MMP-9, concentration 1.95 µM): 90.34 | remaining enzyme activity (% of control) (MMP-9; MMP-9, concentration 9.75 µM): 92.01 | remaining enzyme activity (% of control) (MMP-9; MMP-9, concentration 48.76 µM): 87.31 | remaining enzyme activity (% of control) (MMP-9; MMP-9, concentration 243.80 µM): 52.96 | remaining enzyme activity (% of control) (MMP-9; [3]): 7.04 | IC50 (MMP-9; [1]): 261 ± 31.3 µM | remaining activity (%) (MMP-2; MMP-2, concentration 0.0156 µM): 102.68 | remaining activity (%) (MMP-2; MMP-2, concentration 0.08 µM): 100.17 | remaining activity (%) (MMP-2; MMP-2, concentration 0.39 µM): 95.94 | remaining activity (%) (MMP-2; MMP-2, concentration 1.95 µM): 99.37 | remaining activity (%) (MMP-2; MMP-2, concentration 9.75 µM): 100.31 | remaining activity (%) (MMP-2; MMP-2, concentration 48.76 µM): 87.56 | remaining activity (%) (MMP-2; MMP-2, concentration 243.80 µM): 44.10 | remaining activity (%) (MMP-2; [4]): 12.13 | IC50 (MMP-2; [2]): 212 ± 15.9 µM

Cc1cc(=O)[nH]c(-n2nc(C)c(CCC(=O)NCCOCCOCCNC(=O)c3cncc(O)c3)c2C)n1 [693+828 Linker 10]
remaining enzyme activity (% of control) (MMP-9; MMP-9, concentration 0.08 µM): 97.89 | remaining enzyme activity (% of control) (MMP-9; MMP-9, concentration 0.39 µM): 99.26 | remaining enzyme activity (% of control) (MMP-9; MMP-9, concentration 1.95 µM): 97.73 | remaining enzyme activity (% of control) (MMP-9; MMP-9, concentration 9.75 µM): 98.89 | remaining enzyme activity (% of control) (MMP-9; MMP-9, concentration 48.76 µM): 84.90 | remaining enzyme activity (% of control) (MMP-9; MMP-9, concentration 243.80 µM): 42.77 | remaining enzyme activity (% of control) (MMP-9; [3]): 10.96 | IC50 (MMP-9; [1]): 201 ± 21.3 µM | remaining activity (%) (MMP-2; MMP-2, concentration 0.0156 µM): 88.17 | remaining activity (%) (MMP-2; MMP-2, concentration 0.08 µM): 88.67 | remaining activity (%) (MMP-2; MMP-2, concentration 0.39 µM): 96.33 | remaining activity (%) (MMP-2; MMP-2, concentration 1.95 µM): 93.57 | remaining activity (%) (MMP-2; MMP-2, concentration 9.75 µM): 94.74 | remaining activity (%) (MMP-2; MMP-2, concentration 48.76 µM): 85.76 | remaining activity (%) (MMP-2; MMP-2, concentration 243.80 µM): 33.24 | remaining activity (%) (MMP-2; [4]): 9.64 | IC50 (MMP-2; [2]): 186 ± 15.7 µM

Cc1cc(=O)[nH]c(-n2nc(C)c(CCC(=O)NCCNC(=O)CC(=O)/C=C/CCCCNC(=O)c3cncc(O)c3)c2C)n1 [693+828 Linker 12]
remaining activity at 0.04 µM (MMP-9; MMP-9, concentration 0.04 µM, read-out: Mean (MMP-9 dose-response, Supplementary fig 15)): 95.5% | remaining activity at 0.21 µM (MMP-9; MMP-9, concentration 0.21 µM, read-out: Mean (MMP-9 dose-response, Supplementary fig 15)): 89% | remaining activity at 1.04 µM (MMP-9; MMP-9, concentration 1.04 µM, read-out: Mean (MMP-9 dose-response, Supplementary fig 15)): 89.5% | remaining activity at 5.19 µM (MMP-9; MMP-9, concentration 5.19 µM, read-out: Mean (MMP-9 dose-response, Supplementary fig 15)): 71.7% | remaining activity at 25.96 µM (MMP-9; MMP-9, concentration 25.96 µM, read-out: Mean (MMP-9 dose-response, Supplementary fig 15)): 32.6% | remaining activity at 129.8 µM (MMP-9; MMP-9, concentration 129.80 µM, read-out: Mean (MMP-9 dose-response, Supplementary fig 15)): 0% | remaining activity at 649 µM (MMP-9; MMP-9, concentration 649.00 µM, read-out: Mean (MMP-9 dose-response, Supplementary fig 15)): 0% | IC50 (MMP-9; [1]): 14.8 µM and 15 µM | remaining activity at 0.00831 µM (MMP-2; MMP-2, concentration 0.00831 µM, read-out: Mean (MMP-2 dose-response, Supplementary fig 15)): 95.7% | remaining activity at 0.04 µM (MMP-2; MMP-2, concentration 0.04 µM, read-out: Mean (MMP-2 dose-response, Supplementary fig 15)): 92.8% | remaining activity at 0.21 µM (MMP-2; MMP-2, concentration 0.21 µM, read-out: Mean (MMP-2 dose-response, Supplementary fig 15)): 86.2% | remaining activity at 1.04 µM (MMP-2; MMP-2, concentration 1.04 µM, read-out: Mean (MMP-2 dose-response, Supplementary fig 15)): 77.4% | remaining activity at 5.19 µM (MMP-2; MMP-2, concentration 5.19 µM, read-out: Mean (MMP-2 dose-response, Supplementary fig 15)): 60.2% | remaining activity at 25.96 µM (MMP-2; MMP-2, concentration 25.96 µM, read-out: Mean (MMP-2 dose-response, Supplementary fig 15)): 25.3% | remaining activity at 129.8 µM (MMP-2; MMP-2, concentration 129.80 µM, read-out: Mean (MMP-2 dose-response, Supplementary fig 15)): 0% | remaining activity at 649 µM (MMP-2; MMP-2, concentration 649.00 µM, read-out: Mean (MMP-2 dose-response, Supplementary fig 15)): 0% | IC50 (MMP-2; [2]): 10 µM

Cc1cc(=O)[nH]c(-n2nc(C)c(CCC(=O)NCCNC(=O)CSCCNC(=O)c3cncc(O)c3)c2C)n1 [693+828 Linker 24]
remaining enzyme activity (% of control) (MMP-9; MMP-9, concentration 0.04 µM): 101.25 | remaining enzyme activity (% of control) (MMP-9; MMP-9, concentration 0.21 µM): 90.43 | remaining enzyme activity (% of control) (MMP-9; MMP-9, concentration 1.04 µM): 102.01 | remaining enzyme activity (% of control) (MMP-9; MMP-9, concentration 5.19 µM): 89.02 | remaining enzyme activity (% of control) (MMP-9; MMP-9, concentration 25.96 µM): 79.56 | remaining enzyme activity (% of control) (MMP-9; MMP-9, concentration 129.80 µM): 32.87 | remaining enzyme activity (% of control) (MMP-9; MMP-9, concentration 649.00 µM): 0.00 | IC50 (MMP-9; [1]): 80.5 ± 15.2 µM | remaining activity (%) (MMP-2; MMP-2, concentration 0.0156 µM): 100.00 | remaining activity (%) (MMP-2; MMP-2, concentration 0.08 µM): 92.98 | remaining activity (%) (MMP-2; MMP-2, concentration 0.39 µM): 98.13 | remaining activity (%) (MMP-2; MMP-2, concentration 1.95 µM): 86.92 | remaining activity (%) (MMP-2; MMP-2, concentration 9.75 µM): 82.64 | remaining activity (%) (MMP-2; MMP-2, concentration 48.76 µM): 53.90 | remaining activity (%) (MMP-2; MMP-2, concentration 243.80 µM): 16.08 | remaining activity (%) (MMP-2; [4]): 0.00 | IC50 (MMP-2; [2]): 59.9 ± 15.7 µM

Cc1cc(=O)[nH]c(-n2nc(C)c(CCC(=O)NCc3c[nH]nn3)c2C)n1 [693_787 1]
IC50 (MMP-9; [5]): 312 µM | IC50 (MMP-2; [6]): 204 µM

Cc1cc(=O)[nH]c(-n2nc(C)c(CCC(=O)NCCCCCCCCNC(=O)CCC(=O)NCc3c[nH]nn3)c2C)n1 [693_787 4]
IC50 (MMP-9; [5]): 250 µM | IC50 (MMP-2; [6]): 169 µM
